Data taken from patent publication US20230416248A1, “COMPOUNDS AND USES THEREOF” (Foghorn Therapeutics Inc., priority 2020, published 2023).
pIC50: −log10 of the molar value. Read-outs that look alike come from different tables or passages of the source.

Legend:
BRG-1 = molecular target: T1, BRG-1 (Homo sapiens, UniProt P51532); experiment: ATPase catalytic activity of BRG-1, ADP-Glo in vitro biochemical assay; conditions: 30 nM BRG-1, 400 μM ATP, read-out: BRG1 IC50
T1 construct: made in house; host or cells: High Five insect cells
T1 sequence (P51532 whole entry): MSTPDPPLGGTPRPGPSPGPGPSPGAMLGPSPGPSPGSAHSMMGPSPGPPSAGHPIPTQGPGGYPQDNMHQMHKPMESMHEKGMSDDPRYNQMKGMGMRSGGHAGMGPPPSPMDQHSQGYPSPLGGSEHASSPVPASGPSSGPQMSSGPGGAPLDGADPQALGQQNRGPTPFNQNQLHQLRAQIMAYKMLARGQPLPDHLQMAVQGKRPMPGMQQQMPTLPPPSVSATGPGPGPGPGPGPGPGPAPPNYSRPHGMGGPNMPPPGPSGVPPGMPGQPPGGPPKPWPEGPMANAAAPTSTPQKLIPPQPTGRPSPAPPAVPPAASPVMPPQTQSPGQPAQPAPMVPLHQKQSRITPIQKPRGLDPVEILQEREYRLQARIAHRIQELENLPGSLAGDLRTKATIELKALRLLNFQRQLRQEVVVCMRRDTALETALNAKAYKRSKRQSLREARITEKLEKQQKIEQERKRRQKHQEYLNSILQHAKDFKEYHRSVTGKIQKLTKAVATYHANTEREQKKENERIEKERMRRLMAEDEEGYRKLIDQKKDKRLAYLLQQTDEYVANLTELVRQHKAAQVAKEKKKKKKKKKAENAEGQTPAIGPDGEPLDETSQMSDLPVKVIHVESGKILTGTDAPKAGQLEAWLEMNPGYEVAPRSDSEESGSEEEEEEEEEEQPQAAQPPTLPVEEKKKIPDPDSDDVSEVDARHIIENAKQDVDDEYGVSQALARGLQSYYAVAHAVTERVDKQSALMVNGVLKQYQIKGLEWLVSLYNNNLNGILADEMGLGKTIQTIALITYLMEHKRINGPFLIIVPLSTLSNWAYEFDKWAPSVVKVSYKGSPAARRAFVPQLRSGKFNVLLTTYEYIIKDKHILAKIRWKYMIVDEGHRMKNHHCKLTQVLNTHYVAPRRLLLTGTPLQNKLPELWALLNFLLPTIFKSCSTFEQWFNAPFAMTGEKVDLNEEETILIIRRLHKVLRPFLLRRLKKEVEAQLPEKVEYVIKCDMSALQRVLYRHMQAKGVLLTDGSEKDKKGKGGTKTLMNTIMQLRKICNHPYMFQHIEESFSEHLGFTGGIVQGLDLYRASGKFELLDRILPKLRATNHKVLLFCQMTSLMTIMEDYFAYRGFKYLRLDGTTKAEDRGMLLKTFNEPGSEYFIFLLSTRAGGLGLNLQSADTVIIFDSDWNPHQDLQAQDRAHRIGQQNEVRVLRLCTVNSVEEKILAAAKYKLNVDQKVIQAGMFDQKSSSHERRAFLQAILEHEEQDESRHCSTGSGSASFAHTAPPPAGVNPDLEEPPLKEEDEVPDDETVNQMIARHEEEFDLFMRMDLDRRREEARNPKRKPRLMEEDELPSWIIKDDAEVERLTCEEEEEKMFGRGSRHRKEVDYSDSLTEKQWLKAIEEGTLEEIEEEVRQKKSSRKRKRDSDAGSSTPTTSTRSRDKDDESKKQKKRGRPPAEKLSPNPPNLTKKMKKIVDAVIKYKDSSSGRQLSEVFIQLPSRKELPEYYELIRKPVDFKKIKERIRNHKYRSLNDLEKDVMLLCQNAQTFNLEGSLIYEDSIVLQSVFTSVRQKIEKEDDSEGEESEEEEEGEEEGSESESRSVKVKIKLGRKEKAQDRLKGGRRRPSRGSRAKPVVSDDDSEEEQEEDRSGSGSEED
Procedure: (§1) The ATPase catalytic activity of BRM or BRG-1 was measured by an in vitro biochemical assay using ADP-Glo™ (Promega, V9102). The ADP-Glo™ kinase assay is performed in two steps once the reaction is complete. The first step is to deplete any unconsumed ATP in the reaction. The second step is to convert the reaction product ADP to ATP, which will be utilized by the luciferase to generate luminesce and be detected by a luminescence reader, such as Envision.
Then, following addition of 5 μL of ADP-Glo™ Reagent provided in the kit, the reaction incubates at room temperature for 40 minutes. Then, 10 μL of Kinase Detection Reagent provided in the kit is added to convert ADP to ATP, and the reaction incubates at room temperature for 60 minutes. Finally, luminescence measurement is collected with a plate-reading luminometer, such as Envision.

BRM = molecular target: T2, BRM (Homo sapiens, UniProt P51531); experiment: ATPase catalytic activity of BRM, ADP-Glo in vitro biochemical assay; conditions: for pIC50: 30 nM BRM, 400 μM ATP; for Ratio* (BRG1 IC50 (μM) divided by BRM IC50 (μM)): selectivity ratio BRG1 IC50 / BRM IC50
T2 construct: made in house; host or cells: High Five insect cells
T2 sequence (P51531 whole entry): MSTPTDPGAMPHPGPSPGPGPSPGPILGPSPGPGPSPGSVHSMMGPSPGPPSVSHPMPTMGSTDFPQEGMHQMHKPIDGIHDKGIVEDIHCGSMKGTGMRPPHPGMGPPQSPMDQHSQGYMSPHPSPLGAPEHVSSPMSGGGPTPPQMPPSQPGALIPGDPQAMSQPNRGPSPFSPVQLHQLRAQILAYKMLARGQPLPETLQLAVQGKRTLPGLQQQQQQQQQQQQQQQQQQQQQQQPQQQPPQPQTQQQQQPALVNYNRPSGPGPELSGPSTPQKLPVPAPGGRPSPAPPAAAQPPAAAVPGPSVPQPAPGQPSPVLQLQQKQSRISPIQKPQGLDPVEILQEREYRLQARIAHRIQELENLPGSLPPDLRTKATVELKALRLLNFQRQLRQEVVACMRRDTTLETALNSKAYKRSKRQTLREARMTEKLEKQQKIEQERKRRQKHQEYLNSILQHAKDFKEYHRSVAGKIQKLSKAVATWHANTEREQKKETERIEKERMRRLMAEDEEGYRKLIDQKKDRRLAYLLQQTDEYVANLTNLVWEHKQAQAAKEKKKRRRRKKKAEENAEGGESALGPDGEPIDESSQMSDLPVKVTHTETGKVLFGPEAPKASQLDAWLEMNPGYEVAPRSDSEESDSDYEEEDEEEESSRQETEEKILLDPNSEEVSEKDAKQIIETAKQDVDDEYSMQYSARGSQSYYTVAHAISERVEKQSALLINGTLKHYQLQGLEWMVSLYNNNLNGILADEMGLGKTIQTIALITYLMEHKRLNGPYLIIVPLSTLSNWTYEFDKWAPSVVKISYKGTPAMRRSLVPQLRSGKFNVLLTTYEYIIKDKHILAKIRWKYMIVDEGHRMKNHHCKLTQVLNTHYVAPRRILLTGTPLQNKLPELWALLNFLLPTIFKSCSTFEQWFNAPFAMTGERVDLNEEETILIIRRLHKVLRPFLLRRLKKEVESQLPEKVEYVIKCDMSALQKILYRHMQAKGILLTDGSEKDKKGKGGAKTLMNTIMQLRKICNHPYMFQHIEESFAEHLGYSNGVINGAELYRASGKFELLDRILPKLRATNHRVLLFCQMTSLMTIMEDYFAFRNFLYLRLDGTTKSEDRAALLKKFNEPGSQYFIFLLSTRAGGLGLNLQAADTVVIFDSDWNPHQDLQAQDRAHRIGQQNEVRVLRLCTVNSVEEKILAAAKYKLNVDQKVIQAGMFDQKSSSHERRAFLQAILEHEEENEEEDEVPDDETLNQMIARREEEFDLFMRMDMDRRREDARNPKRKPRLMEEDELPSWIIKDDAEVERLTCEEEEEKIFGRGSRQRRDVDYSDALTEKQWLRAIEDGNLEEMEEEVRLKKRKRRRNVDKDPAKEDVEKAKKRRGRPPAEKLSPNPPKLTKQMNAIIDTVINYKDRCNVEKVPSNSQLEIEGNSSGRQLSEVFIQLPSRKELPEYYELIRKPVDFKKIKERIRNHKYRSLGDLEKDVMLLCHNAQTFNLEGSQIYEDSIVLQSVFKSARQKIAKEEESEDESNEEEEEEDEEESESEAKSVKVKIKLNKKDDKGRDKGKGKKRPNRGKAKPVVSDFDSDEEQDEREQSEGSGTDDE
Procedure: as §1
The assay reaction mixture ([…]) contains 30 nM of BRM or BRG-1, 20 nM salmon sperm DNA (from Invitrogen, UfraPure™ Salmon Sperm DNA Solution, cat #15632011), and 400 μM of ATP in the ATPase assay buffer, which comprises of 20 mM Tris, pH 8, 20 mM MgCl2, 50 mM NaCl, 0.1% Tween-20, and 1 mM fresh DTT (Piercer™ DTT (Dithiothreitol), cat #20290). The reaction is initiated by the addition of the 2.5 μL ATPase solution to 2.5 μL ATP/DNA solution on low volume white Proxiplate-384 plus plate (PerkinElmer, cat #6008280) and incubates at room temperature for 1 hour. Then, following addition of 5 μL of ADP-Glo™ Reagent provided in the kit, the reaction incubates at room temperature for 40 minutes. Then, 10 μL of Kinase Detection Reagent provided in the kit is added to convert ADP to ATP, and the reaction incubates at room temperature for 60 minutes. Finally, luminescence measurement is collected with a plate-reading luminometer, such as Envision.

[1] = ATPase catalytic activity, ADP-Glo

SMILES | pIC50 (BRG-1; ADP-Glo ATPase assay) | pIC50 (BRM; ADP-Glo ATPase assay) | Ratio* (BRG1 IC50 (μM) divided by BRM IC50 (μM)) (BRM) | Ratio* (BRM; ratio BRG1 IC50 / BRM IC50) | pIC50 (BRG-1; [1]) | pIC50 (BRM; [1]) | Ratio* (BRM; ratio of BRG1 IC50 to BRM IC50)
CO[C@H](C)c1cccc(-c2ccc3cnc(CNC(=O)c4ccc5c(c4)S(=O)(=O)CCOC5)cc3n2)n1 [Compound 68] | 5.31 | 6.36 | 11.38 |  |  |  | 
[2H]C1([2H])OC([2H])([2H])[C@@H](C)S(=O)(=O)c2cc(C(=O)NCc3cc4nc(-c5cccc(N6C[C@@H](C)O[C@@H](C)C6)n5)ccc4cn3)ccc21 [Compound 717] | 6.36 | 7.11 |  | 5.61 |  |  | 
C[C@@H]1CCc2ccc(-c3ccc4cnc(CNC(=O)c5ccc6c(c5)S(=O)(=O)CCOC6)cc4n3)nc2N1C [Compound 467] |  |  |  |  | 6.99 | 7.63 | 4.32
C[C@H]1COCc2ncc(C(=O)NCc3cc4nc(-c5cccc(C6CC6)n5)ccc4cn3)cc2S1(=O)=O [Compound 452] |  |  |  |  | 6.02 | 7.36 | 21.77
COCc1ccc2c(c1)N(c1ccc3cnc(CNC(=O)c4ccc5c(c4)S(=O)(=O)CCOC5)cc3n1)CCC2 [Compound 605] |  |  |  |  | 6.73 | 7.93 | 16.04
COc1cc(C(C)(F)F)ccc1-c1ccc2cnc(CNC(=O)c3ccc4c(c3)S(=O)(=O)CCOC4)cc2n1 [Compound 419] |  |  |  |  | 6.42 | 7.61 | 15.63
O=C(NCc1cc2nc(-c3cccc(N4CCCC4)n3)ccc2cn1)c1ccc2c(c1)S(=O)(=O)CCOC2 [Compound 220] | 6.84 | 7.80 | 9.02 |  |  |  | 
C[C@@H]1CN(c2cccc(-c3ccc4cnc(CNC(=O)c5cc(F)c6c(c5)S(=O)(=O)CC[C@H](C)O6)cc4n3)n2)C[C@H](C)O1 [Compound 495] |  |  |  |  | 6.01 | 7.20 | 15.54
[2H]C1([2H])Oc2ccc(C(=O)NCc3cc4nc(N5CCOc6ccc(C(F)F)nc65)ccc4cn3)cc2S(=O)(=O)C([2H])([2H])C1([2H])[2H] [Compound 818] | 5.77 | 7.20 |  | 26.90 |  |  | 
COC[C@@H](C)Oc1ccc2c(c1)N(c1ccc3cnc(CNC(=O)c4ccc5c(c4)S(=O)(=O)CCOC5)cc3n1)CCC2 [Compound 696] |  |  |  |  | 6.89 | 8.17 | 18.76
O=C(NCc1cc2nc(N3CCOc4cc(C(F)F)cnc43)ccc2cn1)c1ccc2c(c1)S(=O)(=O)CCOC2 [Compound 508] |  |  |  |  | 6.86 | 7.88 | 10.53
COC[C@@H]1C[C@@H]1N(C)c1cccc(-c2ccc3cnc(CNC(=O)c4ccc5c(c4)S(=O)(=O)CCOC5)cc3n2)n1 [Compound 413] |  |  |  |  | 6.68 | 7.89 | 16.27
CC(F)(F)c1cccc(-c2ccc3cnc(CNC(=O)c4ccc5c(c4)S(=O)(=O)CCOC5)cc3n2)n1 [Compound 281] | 5.78 | 7.08 | 19.92 |  |  |  | 
COc1c(F)cnc2c1CCCN2c1ccc2cnc(CNC(=O)c3ccc4c(c3)S(=O)(=O)CCOC4)cc2n1 [Compound 802] | 7.17 | 8.09 |  | 8.31 |  |  | 
CC(C)S(=O)(=O)c1cccc(C(=O)NCc2cc3nc(-c4cccc(N5C[C@@H](C)O[C@@H](C)C5)n4)ccc3cn2)c1 [Compound 365] |  |  |  |  | 6.49 | 7.88 | 24.88
O=C(NCc1cc2nc(N3CCOc4ccc(C(F)CF)nc43)ccc2cn1)c1ccc2c(c1)S(=O)(=O)CCOC2 (stereo not drawn) [Compound 838] | 5.97 | 7.56 |  | 38.76 |  |  | 
C[C@@H]1CN(c2cccc(-c3ccc4cnc(CNC(=O)c5cc(Cl)c6c(c5)S(=O)(=O)[C@@H](C)COC6)cc4n3)n2)C[C@H](C)O1 [Compound 431] |  |  |  |  | 6.82 | 7.79 | 9.43

SMILES | pIC50 (BRG-1; ADP-Glo ATPase assay) | pIC50 (BRM; ADP-Glo ATPase assay) | Ratio* (BRG1 IC50 (μM) divided by BRM IC50 (μM)) (BRM) | Ratio* (BRM; ratio BRG1 IC50 / BRM IC50) | pIC50 (BRG-1; [1]) | pIC50 (BRM; [1]) | Ratio* (BRM; ratio of BRG1 IC50 to BRM IC50)
Cc1nc2c(cc1F)OCCN2c1ccc2cnc(CNC(=O)c3ccc4c(c3)S(=O)(=O)CCOC4)cc2n1 [Compound 770] | 6.47 | 7.79 |  | 20.67 |  |  | 
O=C(NCc1cc2nc(N3CCOc4cc(C5CC5)c(F)c(F)c43)ccc2cn1)c1ccc2c(c1)S(=O)(=O)CCOC2 [Compound 805] | 6.52 | 7.58 |  | 11.56 |  |  | 
CCN(c1cccc(-c2ccc3cnc(CNC(=O)c4cc(F)c5c(c4)S(=O)(=O)CCOC5)cc3n2)n1)C1CC1 [Compound 338] |  |  |  |  | 6.66 | 7.70 | 10.88
C[C@@H]1CN(c2cccc(-c3ccc4cnc([C@@H](C)NC(=O)c5ccc6c(c5)S(=O)(=O)CCOC6)cc4n3)n2)C[C@H](C)O1 [Compound 121] | 6.30 | 7.06 | 5.73 |  |  |  | 
C[C@H]1COCc2ccc(C(=O)NCc3cc4nc(-c5ccnc([C@H]6CC6(F)F)n5)ccc4cn3)cc2S1(=O)=O [Compound 464] |  |  |  |  | 6.01 | 7.44 | 27.40
O=C(NCc1cc2nc(N3CCOc4cc(Cl)cc(F)c43)ccc2cn1)c1cc(F)c2c(c1)S(=O)(=O)CCOC2 [Compound 773] | 5.93 | 7.41 |  | 30.25 |  |  | 
O=C(NCc1cc2nc(N3CCOc4ccc(C56CC(C5)C6)nc43)ccc2cn1)c1ccc2c(c1)S(=O)(=O)CCOC2 [Compound 766] | 6.75 | 7.77 |  | 10.47 |  |  | 
C[C@@H]1CN(c2cccc(-c3ccc4cnc(CNC(=O)c5cc6c(cc5F)COCCS6(=O)=O)cc4n3)n2)C[C@H](C)O1 [Compound 648] |  |  |  |  | 7.71 | 8.30 | 3.85
C[C@@H]1CN(c2cccc(-c3ccc4cnc(CNC(=O)c5cccc(S(C)(=O)=O)c5Cl)cc4n3)n2)C[C@H](C)O1 [Compound 82] | 5.30 | 6.37 | 11.71 |  |  |  | 
Cc1cnc2c(c1)OCCN2c1ccc2cnc(CNC(=O)c3ccc4c(c3)S(=O)(=O)C(C)COC4)cc2n1 (stereo not drawn) [Compound 545] |  |  |  |  | 7.18 | 8.11 | 8.60
O=C(NCc1cc2nc(-c3ccccc3OC(F)F)ccc2cn1)c1ccc2c(c1)S(=O)(=O)CCOC2 [Compound 250] | 6.12 | 6.98 | 7.17 |  |  |  | 
CCOc1cccc(-c2ccc3cnc(CNC(=O)c4ccc5c(c4)S(=O)(=O)CCOC5)cc3n2)n1 [Compound 239] | 6.37 | 7.69 | 20.48 |  |  |  | 
O=C(NCc1cc2nc(N3CCc4cc(F)cnc43)ccc2cn1)c1ccc2c(c1)S(=O)(=O)CCOC2 [Compound 727] | 5.91 | 6.99 |  | 11.84 |  |  | 
O=C(NCc1cc2nc(N3CCOc4cc(Cl)c(C5CC5)nc43)ccc2cn1)c1ccc2c(c1)S(=O)(=O)CCOC2 [Compound 698] |  |  |  |  | 5.33 | 6.71 | 24.47
O=C(NCc1cc2nc(N3CCCC4CCCC43)ccc2cn1)c1ccc2c(c1)S(=O)(=O)CCOC2 (stereo not drawn) [Compound 652] |  |  |  |  | 5.50 | 6.35 | 7.21
O=C(NCc1cc2nc(-c3ccccc3OCC3CC3)ccc2cn1)c1ccc2c(c1)S(=O)(=O)CCOC2 [Compound 815] | 5.84 | 6.72 |  | 7.51 |  |  | 
CO[C@H]1C[C@@H](c2cccc(-c3ccc4cnc(CNC(=O)c5ccc6c(c5)S(=O)(=O)CCOC6)cc4n3)n2)C1 [Compound 113] | 6.23 | 7.23 | 9.79 |  |  |  | 
